Assay results from PubChem BioAssay AID328 (DTP/NCI, 2004).
Values joined by “and” are separate entries in the source; they are usually repeats but may differ in a detail not shown here. Equal entries are not always repeated. Inconclusive results and toxic doses are left out. Starred links: 1 amine or outer side, 2 acyl side, 3 side chain; linkers in the order of their positions; H or OH if unused. Positions of bridges follow the written chain, without caps; N, C: chain ends. Non-standard residues stand in square brackets, D forms with d. Residues, ends and D or L forms follow the SMILES beside them. Chains are numbered I, II in the order given. Actinocin(1to9) = Cc1c2oc3c(C)ccc(C(=O)[*:2])c3nc-2c(C(=O)[*:1])c(N)c1=O; NMeV = CN[CH](C(=O)O)C(C)C; Aze = O=C(O)[CH]1CCN1; Sar = CNCC(=O)O

Test system: BDF1 mice, P388 leukemia ip, median survival T/C
Test: NCI In Vivo Anticancer Drug Screen. Data for tumor model P388 Leukemia (intraperitoneal) in B6D2F1 (BDF1) mice
Conditions: endpoint: median survival time, higher = longer survival
Summary of the method: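 T/C = treated-group survival ÷ vehicle-control survival; tumour transplanted into mice before dosing.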

[1] = dose: 100.0 mg/kg/injection, schedule: Q04DX003 (ip), vehicle: Klucel (hydroxypropylcellulose) (HPC)
[2] = dose: 400.0 mg/kg/injection, schedule: Q04DX003 (ip), vehicle: Klucel (hydroxypropylcellulose) (HPC)
[3] = dose: 6.25 mg/kg/injection, schedule: Q01DX009 (ip), vehicle: saline with Tween-80
[4] = dose: 12.5 mg/kg/injection, schedule: Q01DX009 (ip), vehicle: saline with Tween-80
[5] = dose: 12.5 mg/kg/injection, schedule: Q01DX009 (ip), vehicle: Klucel (hydroxypropylcellulose) (HPC)
[6] = dose: 25.0 mg/kg/injection, schedule: Q01DX009 (ip), vehicle: Klucel (hydroxypropylcellulose) (HPC)
[7] = dose: 100.0 mg/kg/injection, schedule: Q01DX009 (ip), vehicle: Klucel (hydroxypropylcellulose) (HPC)
[8] = dose: 200.0 mg/kg/injection, schedule: Q01DX009 (ip), vehicle: Klucel (hydroxypropylcellulose) (HPC)
[9] = dose: 100.0 mg/kg/injection, schedule: Q04DX003 (ip), vehicle: saline with Tween-80
[10] = dose: 200.0 mg/kg/injection, schedule: Q04DX003 (ip), vehicle: saline with Tween-80
[11] = dose: 50.0 mg/kg/injection, schedule: Q01DX009 (ip), vehicle: Klucel (hydroxypropylcellulose) (HPC)

c1ccc(C2OC2c2ccccc2)cc1 (stereo unspecified) was tested, and the T/C (dose: 50.0 mg/kg/injection, schedule: Q04DX003 (ip), vehicle: Klucel (hydroxypropylcellulose) (HPC)) was 89 % of control, the T/C (dose: 75.0 mg/kg/injection, schedule: Q01DX009 (ip), vehicle: Klucel (hydroxypropylcellulose) (HPC)) was 90 % of control and the T/C [1] was 89 % of control. The T/C (dose: 150.0 mg/kg/injection, schedule: Q01DX009 (ip), vehicle: Klucel (hydroxypropylcellulose) (HPC)) was 104 % of control and the T/C (dose: 300.0 mg/kg/injection, schedule: Q01DX009 (ip), vehicle: Klucel (hydroxypropylcellulose) (HPC)) was 104 % of control.

In the case of O=[N+]([O-])c1ccc2c(c1)Cc1cc(Br)ccc1-2, the T/C [1] is reported as 100 % of control and the T/C [2] is reported as 100 % of control.

With COc1cc(O)c2c(c1)Cc1cc(C)cc(O)c1C2=O the T/C [3] was 101 % of control and the T/C [4] was 109 % of control.

In the case of O=C(O)c1ccc2c3c(cccc13)CC2, the T/C (dose: 25.0 mg/kg/injection, schedule: Q01DX001 (ip), vehicle: saline sonified) is reported as 100 % of control, the T/C (dose: 50.0 mg/kg/injection, schedule: Q01DX001 (ip), vehicle: saline sonified) is reported as 100 % of control and the T/C (dose: 100.0 mg/kg/injection, schedule: Q01DX001 (ip), vehicle: saline sonified) is reported as 104 % of control.

With S=C1Cc2[nH]c(=S)sc(=S)c2C(=S)N1 the T/C [3] was 95 % of control, the T/C [4] was 99 % of control and the T/C (dose: 25.0 mg/kg/injection, schedule: Q01DX009 (ip), vehicle: saline with Tween-80) was 101 % of control.

With O=C(C=C(C(F)(F)F)C(F)(F)F)c1ccc(F)cc1 the T/C (dose: 6.25 mg/kg/injection, schedule: Q01DX009 (ip), vehicle: Klucel (hydroxypropylcellulose) (HPC)) was 101 % of control, the T/C (dose: 6.25 mg/kg/injection, schedule: Q01DX009 (ip), vehicle: other) was 100 % of control and the T/C [5] was 105 % of control. The T/C (dose: 12.5 mg/kg/injection, schedule: Q01DX009 (ip), vehicle: other) was 109 % of control, the T/C (dose: 16.5 mg/kg/injection, schedule: Q01DX009 (ip), vehicle: other) was 113 % of control and the T/C [6] was 118 % of control. The T/C (dose: 25.0 mg/kg/injection, schedule: Q01DX009 (ip), vehicle: other) was 118 % of control.

In the case of Cc1ccc(-n2c(=S)[nH]c3ccccc3c2=O)cc1C, the T/C [7] is reported as 100 % of control, the T/C [1] is reported as 105 % of control and the T/C [8] is reported as 86 % of control. For the same compound, the T/C (dose: 200.0 mg/kg/injection, schedule: Q04DX003 (ip), vehicle: Klucel (hydroxypropylcellulose) (HPC)) was 100 % of control, the T/C (dose: 400.0 mg/kg/injection, schedule: Q01DX009 (ip), vehicle: Klucel (hydroxypropylcellulose) (HPC)) was 91 % of control and the T/C [2] was 100 % of control.

Cn1c(=N)ccn(C2OC(CO)C(O)C2O)c1=O (stereo unspecified) (tested in a mixture with another compound) was tested, and the T/C (dose: 200.0 mg/kg/injection, schedule: Q04DX003 (ip), vehicle: saline) was 111 % of control and the T/C (dose: 400.0 mg/kg/injection, schedule: Q04DX003 (ip), vehicle: saline) was 165 % of control.

For CC(=O)OC(c1ccccc1)C(Cl)(Cl)Cl (stereo unspecified), the T/C [9] was 100 % of control, the T/C [10] was 105 % of control and the T/C (dose: 400.0 mg/kg/injection, schedule: Q04DX003 (ip), vehicle: saline with Tween-80) was 110 % of control.

For c1ccc2c(SSc3cccc4ccccc34)cccc2c1, the T/C (dose: 25.0 mg/kg/injection, schedule: Q04DX003 (ip), vehicle: saline with Tween-80) was 108 % of control, the T/C (dose: 50.0 mg/kg/injection, schedule: Q04DX003 (ip), vehicle: saline with Tween-80) was 108 % of control and the T/C [9] was 112 % of control. For the same compound, the T/C [10] was 103 % of control.

In the case of c1ccc(SCN2CCN(CSc3ccccc3)CC2)cc1, the T/C (dose: 50.0 mg/kg/injection, schedule: Q01DX001 (ip), vehicle: saline) is reported as 95 % of control and the T/C (dose: 100.0 mg/kg/injection, schedule: Q01DX001 (ip), vehicle: saline) is reported as 109 % of control.

With CCN(c1ccc(C=O)cc1)c1ccc([N+](=O)[O-])cc1[N+](=O)[O-] the T/C [11] was 99 % of control, the T/C [7] was 97 % of control and the T/C [8] was 97 % of control.

In the case of CCCCCC(CN(C)C)C(O)/C=C/c1ccccc1Cl (stereo unspecified), the T/C (dose: 3.12 mg/kg/injection, schedule: Q01DX009 (ip), vehicle: saline) is reported as 110 % of control, the T/C (dose: 6.25 mg/kg/injection, schedule: Q01DX009 (ip), vehicle: saline) is reported as 100 % of control and the T/C (dose: 12.5 mg/kg/injection, schedule: Q01DX009 (ip), vehicle: saline) is reported as 105 % of control. The T/C (dose: 25.0 mg/kg/injection, schedule: Q01DX009 (ip), vehicle: saline) was 107 % of control and the T/C (dose: 50.0 mg/kg/injection, schedule: Q01DX009 (ip), vehicle: saline) was 117 % of control.

CC(=O)O[C@]1(C(C)=O)CC[C@H]2[C@@H]3C[C@H](F)C4=CC(=O)CC[C@]4(C)[C@H]3CC[C@@]21C was tested, and the T/C [5] was 109 % of control, the T/C [6] was 100 % of control and the T/C [11] was 100 % of control. The T/C [7] was 87 % of control, the T/C (dose: 100.0 mg/kg/injection, schedule: Q04DX003 (ip), vehicle: alcohol) was 100 % of control and the T/C (dose: 200.0 mg/kg/injection, schedule: Q04DX003 (ip), vehicle: alcohol) was 105 % of control. For the same compound, the T/C (dose: 400.0 mg/kg/injection, schedule: Q04DX003 (ip), vehicle: alcohol) was 110 % of control.

CC(C)(C)OC(=O)NNC(=O)c1ccc([N+](=O)[O-])cc1 was tested, and the T/C [11] was 90 % of control and the T/C [8] was 95 % of control.

In the case of Cc1c2oc3c(C)ccc(C(=O)NC4C(=O)NC(C(C)C)C(=O)N5CCCC5C(=O)N(C)CC(=O)N(C)C(C(C)C)C(=O)OC4C)c3nc-2c(C(=O)NC2C(=O)NC(C(C)C)C(=O)N3CCC3C(=O)N(C)CC(=O)N(C)C(C(C)C)C(=O)OC2C)c(N)c1=O (stereo unspecified) (I: TV[Aze][Sar][NMeV] / II: TVP[Sar][NMeV]; ester I:1-I:C, II:1-II:C; linker I:N-II:N via Actinocin(1to9); configuration not given here), the T/C (dose: 0.26 mg/kg/injection, schedule: Q04DX003 (ip), vehicle: saline) is reported as 201 % of control, the T/C (dose: 0.3 mg/kg/injection, schedule: Q04DX003 (ip), vehicle: saline + alcohol) is reported as 265 % of control and 168 % of control and the T/C (dose: 0.4 mg/kg/injection, schedule: Q04DX003 (ip), vehicle: saline) is reported as 250 % of control. For the same compound, the T/C (dose: 0.45 mg/kg/injection, schedule: Q04DX003 (ip), vehicle: saline + alcohol) was 256 % of control and 223 % of control, the T/C (dose: 0.6 mg/kg/injection, schedule: Q04DX003 (ip), vehicle: saline + alcohol) was 230 % of control and 159 % of control and the T/C (dose: 0.6 mg/kg/injection, schedule: Q04DX003 (ip), vehicle: saline) was 373 % of control. The T/C (dose: 0.9 mg/kg/injection, schedule: Q04DX003 (ip), vehicle: saline + alcohol) was 123 % of control and 219 % of control, the T/C (dose: 0.9 mg/kg/injection, schedule: Q04DX003 (ip), vehicle: saline) was 551 % of control and the T/C (dose: 1.2 mg/kg/injection, schedule: Q04DX003 (ip), vehicle: saline + alcohol) was 97 % of control and 117 % of control. For the same compound, the T/C (dose: 1.3 mg/kg/injection, schedule: Q04DX003 (ip), vehicle: saline) was 551 % of control, the T/C (dose: 12.5 micrograms/kg/injection, schedule: Q01DX009 (ip), vehicle: saline + alcohol) was 197 % of control and the T/C (dose: 25.0 micrograms/kg/injection, schedule: Q01DX009 (ip), vehicle: saline + alcohol) was 218 % of control. For the same compound, the T/C (dose: 50.0 micrograms/kg/injection, schedule: Q01DX009 (ip), vehicle: saline + alcohol) was 263 % of control, the T/C (dose: 75.0 micrograms/kg/injection, schedule: Q04DX003 (ip), vehicle: saline + alcohol) was 205 % of control and the T/C (dose: 100.0 micrograms/kg/injection, schedule: Q01DX009 (ip), vehicle: saline + alcohol) was 270 % of control. The T/C (dose: 112.5 micrograms/kg/injection, schedule: Q01DX009 (ip), vehicle: saline + alcohol) was 265 % of control, the T/C (dose: 150.0 micrograms/kg/injection, schedule: Q01DX009 (ip), vehicle: saline + alcohol) was 212 % of control and the T/C (dose: 150.0 micrograms/kg/injection, schedule: Q04DX003 (ip), vehicle: saline + alcohol) was 226 % of control and 153 % of control. The T/C (dose: 200.0 micrograms/kg/injection, schedule: Q01DX009 (ip), vehicle: saline + alcohol) was 622 % of control, the T/C (dose: 225.0 micrograms/kg/injection, schedule: Q01DX009 (ip), vehicle: saline + alcohol) was 105 % of control and the T/C (dose: 300.0 micrograms/kg/injection, schedule: Q01DX009 (ip), vehicle: saline + alcohol) was 95 % of control. For the same compound, the T/C (dose: 300.0 micrograms/kg/injection, schedule: Q04DX003 (ip), vehicle: saline + alcohol) was 250 % of control and 197 % of control, the T/C (dose: 450.0 micrograms/kg/injection, schedule: Q01DX009 (ip), vehicle: saline + alcohol) was 94 % of control and the T/C (dose: 600.0 micrograms/kg/injection, schedule: Q04DX003 (ip), vehicle: saline + alcohol) was 385 % of control and 388 % of control. For the same compound, the T/C (dose: 1200.0 micrograms/kg/injection, schedule: Q04DX003 (ip), vehicle: saline + alcohol) was 104 % of control.
